Measured values: patent publication US20180055032A1, “ODORS FOR PSYLLID TRAPPING, REPELLING AND CONTROL” (The Regents of the University of California, priority 2011, published 2018)

Columns and labels:
Format in all cases: cell-based, Diaphorina citri
Details in all cases: Table 1; odor diluted to 1%, 50 μL in cartridge
[1] = system: neuron 7C (rhinarial plate on flagellomere 7); experiment: single-sensillum electrophysiology, odor response of neuron 7C
[2] = system: neuron 7A (rhinarial plate on flagellomere 7); experiment: single-sensillum electrophysiology, odor response of neuron 7A; note: key: 0, no response; +, >50 spikes/second; ++, >100 spikes/second; +++, >150 spikes/second
[3] = system: neuron 2C (rhinarial plate on flagellomere 2); experiment: single-sensillum electrophysiology, odor response of neuron 2C
[4] = system: neuron 6A (rhinarial plate on flagellomere 6); experiment: single-sensillum electrophysiology, odor response of neuron 6A
[5] = system: neuron 7B (rhinarial plate on flagellomere 7)
[6] = system: neuron 6B (rhinarial plate on flagellomere 6); experiment: single-sensillum electrophysiology, odor response of neuron 6B
[7] = system: neuron 2A (rhinarial plate on flagellomere 2); experiment: single-sensillum electrophysiology, odor response of neuron 2A; note: key: 0, no response; +, >50 spikes/second; ++, >100 spikes/second; +++, >150 spikes/second
[8] = system: neuron 2B (rhinarial plate on flagellomere 2); experiment: single-sensillum electrophysiology, odor response of neuron 2B
[9] = system: neuron 4A (rhinarial plate on flagellomere 4); experiment: single-sensillum electrophysiology, odor response of neuron 4A
[10] = system: neuron 4B (rhinarial plate on flagellomere 4)
[11] = system: neuron 6C (rhinarial plate on flagellomere 6); experiment: single-sensillum electrophysiology, odor response of neuron 6C
[12] = system: neuron 4C (rhinarial plate on flagellomere 4); experiment: single-sensillum electrophysiology, odor response of neuron 4C

Row | Compound | odor response (frequency of action potentials during stimulus minus baseline), 7C [1] | odor response (frequency of action potentials during stimulus minus baseline), 7A [2] | odor response (frequency of action potentials during stimulus minus baseline), 2C [3] | odor response (frequency of action potentials during stimulus minus baseline), 6A [4] | odor response (frequency of action potentials during stimulus minus baseline), 7B [5] | odor response (frequency of action potentials during stimulus minus baseline), 6B [6] | odor response (frequency of action potentials during stimulus minus baseline), 2A [7] | odor response (frequency of action potentials during stimulus minus baseline), 2B [8] | odor response (frequency of action potentials during stimulus minus baseline), 4A [9] | odor response (frequency of action potentials during stimulus minus baseline), 4B [10] | odor response (frequency of action potentials during stimulus minus baseline), 6C [11] | odor response (frequency of action potentials during stimulus minus baseline), 4C [12]
1 | C=C/C(C)=C\C/C=C(\C)CCC=C(C)C [ZE-α-farnesene] | 0 | 0 | + (+, >50 spikes/second) | 0 | 0 | 0 | 0 | 0 | 0 | 0 | 0 | 0
2 | CC(=O)c1ccccc1 [acetophenone] | + (+, >50 spikes/second) | 0 | 0 | 0 | 0 | ++ (++, >100 spikes/second) | 0 | 0 | 0 | ++ (++, >100 spikes/second) | 0 | 0
3 | C=CCSSCC=C [allyl disulfide] | 0 | 0 | 0 | 0 | 0 | + (+, >50 spikes/second) | 0 | 0 | 0 | ++ (++, >100 spikes/second) | 0 | 0
4 | O=Cc1ccccc1 [benzaldehyde] | 0 | 0 | + (+, >50 spikes/second) | 0 | 0 | 0 | 0 | 0 | 0 | + (+, >50 spikes/second) | 0 | 0
5 | CC(C)=CCCC(C)=CC=O [citral] | 0 | 0 | ++ (++, >100 spikes/second) | 0 | 0 | 0 | 0 | 0 | 0 | 0 | 0 | 0
6 | CC(C)=CCCC(C)CC=O (stereo not drawn) [citronellal] | 0 | 0 | + (+, >50 spikes/second) | 0 | 0 | 0 | 0 | 0 | 0 | 0 | 0 | 0
7 | CCCCCCCCCC=O [decanal] | ++ (++, >100 spikes/second) | 0 | 0 | 0 | 0 | ++ (++, >100 spikes/second) | 0 | 0 | 0 | +++ (+++, >150 spikes/second) | 0 | 0
8 | C=CCSSSCC=C [diallyl trisulfide] | 0 | 0 | 0 | 0 | 0 | + (+, >50 spikes/second) | 0 | 0 | 0 | + (+, >50 spikes/second) | 0 | 0
9 | CCCSSCCC [dipropyl disulfide] | 0 | 0 | 0 | 0 | 0 | ++ (++, >100 spikes/second) | 0 | 0 | 0 | + (+, >50 spikes/second) | 0 | 0
10 | CCCC(=O)OCC [ethyl butyrate] | ++ (++, >100 spikes/second) | 0 | + (+, >50 spikes/second) | 0 | 0 | ++ (++, >100 spikes/second) | 0 | 0 | 0 | +++ (+++, >150 spikes/second) | 0 | 0
11 | CC(=O)OCC(C)C [isobutyl acetate] | 0 | 0 | 0 | 0 | 0 | ++ (++, >100 spikes/second) | 0 | 0 | 0 | ++ (++, >100 spikes/second) | 0 | 0
